Experimental data published in patent US20260250257A1, “ANTIBACTERIAL AND SYNERGISTIC ACTIVE COMPOUND AND USE THEREOF” (EAST CHINA UNIVERSITY OF SCIENCE AND TECHNOLOGY, priority 2023, published 2026).
Converted amounts (≈) assume the structure as drawn.

The molecules below were run on ATCC25922 strain (Escherichia coli) (assay: Checkerboard antibacterial synergistic activity test with polymyxin E (FIC)). Details: combined with polymyxin E.
Type: cell-based
Parameters: key: FIC≤0.5 synergy; 0.5–1 additive; 1–2 indifferent; ≥2 antagonism
Procedure, shortened: (§1)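 Interaction is reported as the fractional inhibitory concentration, read after 16 h of growth at 37° C. in Mueller-Hinton broth. Each well paired one level of polymyxin E (prepared at 16 to 0.015 μg/ml) with one of the test agent (prepared at 256 to 4 μg/ml) before bacteria were added.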

| Compound | Synergistic activity (FIC value) ATCC25922 |
| --- | --- |
| NC(N)=Nc1nc(-c2cccc(Oc3ccc(N4CCOCC4)cc3)c2)cs1 [Compound I-105] | 1.25 |
| COc1ccc(Oc2ccccc2-c2csc(N=C(N)N)n2)c(OC)c1 [Compound I-88] | 0.2 |
| NC(N)=Nc1nc(-c2ccccc2Oc2ccccc2)cs1 [Compound I-1, 2-(4-(2-phenoxyphenyl)thiazol-2-yl)guanidine] | 1.25 |
| CCc1sc(N=C(N)N)nc1-c1ccccc1Oc1ccc(N2CCOCC2)cc1 [Compound I-102] | 1.25 |
| NC(N)=Nc1nc(-c2cc(F)cc(Oc3ccc(Cl)cc3Cl)c2)cs1 [Compound I-100] | 0.15 |
| Cc1cc(-c2csc(N=C3NCCCN3)n2)cc(C)c1O [Compound I-173] | 0.5 |
| c1ccn2c(-c3coc(N=C4NCCCN4)n3)ccc2c1 [Compound I-189] | 0.5 |
| Cn1ccc2cccc(-c3c[se]c(N=C(N)N)n3)c21 [Compound I-72] | 0.56 |
| NC(N)=Nc1nc(-c2cccc(OCc3ccccc3)c2)cs1 [Compound I-8] | 1.25 |
| Cc1oc(N=C2NCCCN2)nc1-c1cc(NS(C)(=O)=O)ccc1-c1ccco1 [Compound I-139] | 0.5 |

What follows are molecules tested on ATCC9027 strain (Pseudomonas aeruginosa) in the same assay as above. Details: combined with polymyxin E.
Type: cell-based
Parameters: key: FIC≤0.5 synergy; 0.5–1 additive; 1–2 indifferent; ≥2 antagonism
Procedure, shortened: as §1

| Compound | Synergistic activity (FIC value) ATCC9027 |
| --- | --- |
| NC(N)=Nc1nc(-c2cccc(Oc3ccc(N4CCOCC4)cc3)c2)cs1 [Compound I-105] | 0.51 |
| COc1ccc(Oc2ccccc2-c2csc(N=C(N)N)n2)c(OC)c1 [Compound I-88] | 0.28 |
| NC(N)=Nc1nc(-c2ccccc2Oc2ccccc2)cs1 [Compound I-1, 2-(4-(2-phenoxyphenyl)thiazol-2-yl)guanidine] | 0.52 |
| CCc1sc(N=C(N)N)nc1-c1ccccc1Oc1ccc(N2CCOCC2)cc1 [Compound I-102] | 0.51 |
| NC(N)=Nc1nc(-c2cc(F)cc(Oc3ccc(Cl)cc3Cl)c2)cs1 [Compound I-100] | 0.18 |
| Cc1cc(-c2csc(N=C3NCCCN3)n2)cc(C)c1O [Compound I-173] | 0.63 |
| c1ccn2c(-c3coc(N=C4NCCCN4)n3)ccc2c1 [Compound I-189] | 0.63 |
| Cn1ccc2cccc(-c3c[se]c(N=C(N)N)n3)c21 [Compound I-72] | 0.5 |
| NC(N)=Nc1nc(-c2cccc(OCc3ccccc3)c2)cs1 [Compound I-8] | 0.53 |
| Cc1oc(N=C2NCCCN2)nc1-c1cc(NS(C)(=O)=O)ccc1-c1ccco1 [Compound I-139] | 1.25 |

These molecules were tested on ATCC19606 strain (Acinetobacter baumannii) in the same assay as above. Details: combined with polymyxin E.
Type: cell-based
Parameters: key: FIC≤0.5 synergy; 0.5–1 additive; 1–2 indifferent; ≥2 antagonism
Procedure, shortened: as §1

| Compound | Synergistic activity (FIC value) ATCC19606 |
| --- | --- |
| NC(N)=Nc1nc(-c2cccc(Oc3ccc(N4CCOCC4)cc3)c2)cs1 [Compound I-105] | 1.25 |
| COc1ccc(Oc2ccccc2-c2csc(N=C(N)N)n2)c(OC)c1 [Compound I-88] | 0.04 |
| NC(N)=Nc1nc(-c2ccccc2Oc2ccccc2)cs1 [Compound I-1, 2-(4-(2-phenoxyphenyl)thiazol-2-yl)guanidine] | 1.25 |
| CCc1sc(N=C(N)N)nc1-c1ccccc1Oc1ccc(N2CCOCC2)cc1 [Compound I-102] | 1.25 |
| NC(N)=Nc1nc(-c2cc(F)cc(Oc3ccc(Cl)cc3Cl)c2)cs1 [Compound I-100] | 0.02 |
| Cc1cc(-c2csc(N=C3NCCCN3)n2)cc(C)c1O [Compound I-173] | 0.75 |
| c1ccn2c(-c3coc(N=C4NCCCN4)n3)ccc2c1 [Compound I-189] | 0.28 |
| Cn1ccc2cccc(-c3c[se]c(N=C(N)N)n3)c21 [Compound I-72] | 0.25 |
| NC(N)=Nc1nc(-c2cccc(OCc3ccccc3)c2)cs1 [Compound I-8] | 0.25 |
| Cc1oc(N=C2NCCCN2)nc1-c1cc(NS(C)(=O)=O)ccc1-c1ccco1 [Compound I-139] | 0.75 |

Each molecule was assayed on ATCC13883 strain (Klebsiella pneumoniae) in the same assay as above. Details: combined with polymyxin E.
Type: cell-based
Parameters: key: FIC≤0.5 synergy; 0.5–1 additive; 1–2 indifferent; ≥2 antagonism
Procedure, shortened: as §1

| Compound | Synergistic activity (FIC value) ATCC13883 |
| --- | --- |
| NC(N)=Nc1nc(-c2cccc(Oc3ccc(N4CCOCC4)cc3)c2)cs1 [Compound I-105] | 1.25 |
| COc1ccc(Oc2ccccc2-c2csc(N=C(N)N)n2)c(OC)c1 [Compound I-88] | 0.13 |
| NC(N)=Nc1nc(-c2ccccc2Oc2ccccc2)cs1 [Compound I-1, 2-(4-(2-phenoxyphenyl)thiazol-2-yl)guanidine] | 0.53 |
| CCc1sc(N=C(N)N)nc1-c1ccccc1Oc1ccc(N2CCOCC2)cc1 [Compound I-102] | 1.25 |
| NC(N)=Nc1nc(-c2cc(F)cc(Oc3ccc(Cl)cc3Cl)c2)cs1 [Compound I-100] | 0.13 |
| Cc1cc(-c2csc(N=C3NCCCN3)n2)cc(C)c1O [Compound I-173] | 0.38 |
| c1ccn2c(-c3coc(N=C4NCCCN4)n3)ccc2c1 [Compound I-189] | 0.25 |
| Cn1ccc2cccc(-c3c[se]c(N=C(N)N)n3)c21 [Compound I-72] | 0.31 |
| NC(N)=Nc1nc(-c2cccc(OCc3ccccc3)c2)cs1 [Compound I-8] | 0.53 |
| Cc1oc(N=C2NCCCN2)nc1-c1cc(NS(C)(=O)=O)ccc1-c1ccco1 [Compound I-139] | 1.25 |

Each molecule was assayed on ATCC25922 strain (Escherichia coli) (assay: Broth microdilution, antibacterial activity of the compound used alone). Details: not given.
Type: cell-based
Text: (§2) The broth microdilution method was used to test the antibacterial effects of the compounds of the present invention against various Gram-negative bacterial strains when used alone.

| Compound | Antibacterial activity of the compound of Formula I, ATCC25922 |
| --- | --- |
| NC(N)=Nc1nc(-c2cccc(Oc3ccc(N4CCOCC4)cc3)c2)cs1 [Compound I-105] | 256 µg/mL |
| COc1ccc(Oc2ccccc2-c2csc(N=C(N)N)n2)c(OC)c1 [Compound I-88] | 256 µg/mL |
| CCc1sc(N=C(N)N)nc1-c1ccccc1Oc1ccc(N2CCOCC2)cc1 [Compound I-102] | 256 µg/mL |
| NC(N)=Nc1nc(-c2cc(F)cc(Oc3ccc(Cl)cc3Cl)c2)cs1 [Compound I-100] | 128 µg/mL |
| Cc1cc(-c2csc(N=C3NCCCN3)n2)cc(C)c1O [Compound I-173] | 256 µg/mL |
| c1ccn2c(-c3coc(N=C4NCCCN4)n3)ccc2c1 [Compound I-189] | 256 µg/mL |
| Cn1ccc2cccc(-c3c[se]c(N=C(N)N)n3)c21 [Compound I-72] | 256 µg/mL |
| Cc1oc(N=C2NCCCN2)nc1-c1cc(NS(C)(=O)=O)ccc1-c1ccco1 [Compound I-139] | 256 µg/mL |

Same assay, conditions: read-out: Antibacterial activity of the compound of Formula I, ATCC25922

| MIC | Compound |
| --- | --- |
| 256 µg/mL (≈ 825 µM) | NC(N)=Nc1nc(-c2ccccc2Oc2ccccc2)cs1 [Compound I-1, 2-(4-(2-phenoxyphenyl)thiazol-2-yl)guanidine] |
| 256 µg/mL (≈ 789 µM) | NC(N)=Nc1nc(-c2cccc(OCc3ccccc3)c2)cs1 [Compound I-8] |

The molecules below were run on ATCC9027 strain (Pseudomonas aeruginosa) in the same assay as above. Details: not given.
Type: cell-based
Text: as §2

| Compound | Antibacterial activity of the compound of Formula I, ATCC9027 |
| --- | --- |
| NC(N)=Nc1nc(-c2cccc(Oc3ccc(N4CCOCC4)cc3)c2)cs1 [Compound I-105] | 256 µg/mL |
| COc1ccc(Oc2ccccc2-c2csc(N=C(N)N)n2)c(OC)c1 [Compound I-88] | 256 µg/mL |
| CCc1sc(N=C(N)N)nc1-c1ccccc1Oc1ccc(N2CCOCC2)cc1 [Compound I-102] | 256 µg/mL |
| NC(N)=Nc1nc(-c2cc(F)cc(Oc3ccc(Cl)cc3Cl)c2)cs1 [Compound I-100] | 256 µg/mL |
| Cc1cc(-c2csc(N=C3NCCCN3)n2)cc(C)c1O [Compound I-173] | 256 µg/mL |
| c1ccn2c(-c3coc(N=C4NCCCN4)n3)ccc2c1 [Compound I-189] | 256 µg/mL |
| Cn1ccc2cccc(-c3c[se]c(N=C(N)N)n3)c21 [Compound I-72] | 256 µg/mL |
| Cc1oc(N=C2NCCCN2)nc1-c1cc(NS(C)(=O)=O)ccc1-c1ccco1 [Compound I-139] | 256 µg/mL |

Same assay, conditions: read-out: Antibacterial activity of the compound of Formula I, ATCC9027

| MIC | Compound |
| --- | --- |
| 256 µg/mL (≈ 825 µM) | NC(N)=Nc1nc(-c2ccccc2Oc2ccccc2)cs1 [Compound I-1, 2-(4-(2-phenoxyphenyl)thiazol-2-yl)guanidine] |
| 128 µg/mL (≈ 395 µM) | NC(N)=Nc1nc(-c2cccc(OCc3ccccc3)c2)cs1 [Compound I-8] |

The molecules below were run on ATCC19606 strain (Acinetobacter baumannii) in the same assay as above. Details: not given.
Type: cell-based
Text: as §2

| Compound | Antibacterial activity of the compound of Formula I, ATCC19606 |
| --- | --- |
| NC(N)=Nc1nc(-c2cccc(Oc3ccc(N4CCOCC4)cc3)c2)cs1 [Compound I-105] | 256 µg/mL |
| COc1ccc(Oc2ccccc2-c2csc(N=C(N)N)n2)c(OC)c1 [Compound I-88] | 256 µg/mL |
| CCc1sc(N=C(N)N)nc1-c1ccccc1Oc1ccc(N2CCOCC2)cc1 [Compound I-102] | 256 µg/mL |
| NC(N)=Nc1nc(-c2cc(F)cc(Oc3ccc(Cl)cc3Cl)c2)cs1 [Compound I-100] | 256 µg/mL |
| Cc1cc(-c2csc(N=C3NCCCN3)n2)cc(C)c1O [Compound I-173] | 256 µg/mL |
| c1ccn2c(-c3coc(N=C4NCCCN4)n3)ccc2c1 [Compound I-189] | 256 µg/mL |
| Cn1ccc2cccc(-c3c[se]c(N=C(N)N)n3)c21 [Compound I-72] | 256 µg/mL |
| Cc1oc(N=C2NCCCN2)nc1-c1cc(NS(C)(=O)=O)ccc1-c1ccco1 [Compound I-139] | 256 µg/mL |

Same assay, conditions: read-out: Antibacterial activity of the compound of Formula I, ATCC19606

| MIC | Compound |
| --- | --- |
| 256 µg/mL (≈ 825 µM) | NC(N)=Nc1nc(-c2ccccc2Oc2ccccc2)cs1 [Compound I-1, 2-(4-(2-phenoxyphenyl)thiazol-2-yl)guanidine] |
| 256 µg/mL (≈ 789 µM) | NC(N)=Nc1nc(-c2cccc(OCc3ccccc3)c2)cs1 [Compound I-8] |

What follows are molecules tested on ATCC13883 strain (Klebsiella pneumoniae) in the same assay as above. Details: not given.
Type: cell-based
Text: as §2

| Compound | Antibacterial activity of the compound of Formula I, ATCC13883 |
| --- | --- |
| NC(N)=Nc1nc(-c2cccc(Oc3ccc(N4CCOCC4)cc3)c2)cs1 [Compound I-105] | 256 µg/mL |
| COc1ccc(Oc2ccccc2-c2csc(N=C(N)N)n2)c(OC)c1 [Compound I-88] | 256 µg/mL |
| CCc1sc(N=C(N)N)nc1-c1ccccc1Oc1ccc(N2CCOCC2)cc1 [Compound I-102] | 256 µg/mL |
| NC(N)=Nc1nc(-c2cc(F)cc(Oc3ccc(Cl)cc3Cl)c2)cs1 [Compound I-100] | 256 µg/mL |
| Cc1cc(-c2csc(N=C3NCCCN3)n2)cc(C)c1O [Compound I-173] | 256 µg/mL |
| c1ccn2c(-c3coc(N=C4NCCCN4)n3)ccc2c1 [Compound I-189] | 256 µg/mL |
| Cn1ccc2cccc(-c3c[se]c(N=C(N)N)n3)c21 [Compound I-72] | 256 µg/mL |
| Cc1oc(N=C2NCCCN2)nc1-c1cc(NS(C)(=O)=O)ccc1-c1ccco1 [Compound I-139] | 256 µg/mL |

Same assay, conditions: read-out: Antibacterial activity of the compound of Formula I, ATCC13883

| MIC | Compound |
| --- | --- |
| 256 µg/mL (≈ 825 µM) | NC(N)=Nc1nc(-c2ccccc2Oc2ccccc2)cs1 [Compound I-1, 2-(4-(2-phenoxyphenyl)thiazol-2-yl)guanidine] |
| 256 µg/mL (≈ 789 µM) | NC(N)=Nc1nc(-c2cccc(OCc3ccccc3)c2)cs1 [Compound I-8] |
